The record followed here is ChEMBL document CHEMBL4715878 (J Med Chem, 2020).

pIC50: −log10 of the molar value.

In assay [1] the target is Platelet-derived growth factor receptor alpha (Homo sapiens, UniProt P16234). The assay is described as follows: Effect on human recombinant N-terminal GST-tagged PDGFRalpha (550 to end residues) expressed in baculovirus infected Sf9 insect cells in presence of substrate and [gamma-32ATP] at 10 uM incubated for 30 mins by scintillation counting based radiometry assay relative to control. To be noted: 0.5 h, read-out: Activity.

The test system of a further assay is BT-474. The experiment in a line: Antiproliferative activity against human BT474 cells assessed as reduction in cell viability incubated for 72 hrs by WST8 assay. Type of assay: functional, cell-based. To be noted: BT-474, 72 h. For orientation: Formazan colour is commonly taken as a measure of viable cells.
The test system of assay [2] is MCF7. The assay is described as follows: Antiproliferative activity against human MCF7 cells assessed as reduction in cell viability incubated for 72 hrs by WST8 assay. Type of assay: functional, cell-based. The settings on record: MCF7, 72 h.
Assay [3] has as its target Receptor tyrosine-protein kinase erbB-2 (Homo sapiens, UniProt P04626). The settings on record: Sf9, human, 0.5 h.
Assay [4] concerns the target Receptor tyrosine-protein kinase erbB-4 (Homo sapiens, UniProt Q15303). The assay is described as follows: Effect on human recombinant N-terminal GST-tagged HER4 (682 to 993) expressed in baculovirus infected Sf9 insect cells in presence of substrate and [gamma-32ATP] at 10 uM incubated for 30 mins by scintillation counting based radiometry assay relative to control. The settings on record: 0.5 h, read-out: Activity.

Assay [5] addresses Epidermal growth factor receptor (Homo sapiens, UniProt P00533). The settings on record: 0.5 h.
Description: Effect on human EGFR in presence of substrate and [gamma-32ATP] at 10 uM incubated for 30 mins by scintillation counting based radiometry assay relative to control
The test system of a further assay is MDA-MB-231. The assay is described as follows: Antiproliferative activity against human MDA-MB-231 cells assessed as reduction in cell viability incubated for 72 hrs by WST8 assay. The settings on record: MDA-MB-231, 72 h. Type of assay: functional, cell-based.
The subject of the next assay is AU565. The assay is described as follows: Antiproliferative activity against human AU565 cells assessed as reduction in cell viability incubated for 72 hrs by WST8 assay. The settings on record: AU565, 72 h. Type of assay: functional, cell-based.
In assay [6] the test system is MDA-MB-468. The experiment in a line: Antiproliferative activity against human MDA-MB-468 cells assessed as cell growth inhibition after 48 hrs by SRB assay. Type of assay: functional. On the technique in general: Sulforhodamine B stains cellular protein and so reports cell mass.
Assay [7] deals with Panel NCI-60 (60 carcinoma cell lines). The assay is described as follows: Antiproliferative activity against human NCI60 cells assessed as mean cell growth at 10 uM after 48 hrs by SRB assay relative to control. Type of assay: functional.
Assay [8] in a line: Antiproliferative activity against human MDA-MB-231 cells assessed as lethality at 10 uM after 48 hrs by SRB assay relative to control. It is filed as functional, MDA-MB-23.
For assay [9], the system named is Panel NCI-60 (60 carcinoma cell lines). The assay is described as follows: Antiproliferative activity against human NCI60 cells assessed as lethality at 10 uM after 48 hrs by SRB assay relative to control. Type of assay: functional.
For assay [10], the system named is MDA-MB-468. The experiment in a line: Antiproliferative activity against human MDA-MB-468 cells assessed as lethality at 10 uM after 48 hrs by SRB assay relative to control. Type of assay: functional.
In assay [11] the test system is MDA-MB-468. The assay is described as follows: Antiproliferative activity against human MDA-MB-468 cells assessed as cell growth inhibition at 10 uM after 48 hrs by SRB assay relative to control. It is filed as functional. The settings on record: read-out: GI.
The nature of assay [12]: Antiproliferative activity against human BC assessed as lethality at 10 uM after 48 hrs by SRB assay relative to control. Type of assay: functional.
Assay [13] deals with MCF7. The experiment in a line: Antiproliferative activity against human MCF7 cells assessed as lethality at 10 uM after 48 hrs by SRB assay relative to control. It is filed as functional.
A short description of assay [14]: Antiproliferative activity against human BC assessed as cell growth inhibition at 10 uM after 48 hrs by SRB assay relative to control. Type of assay: functional. To be noted: read-out: GI.
Assay [15] concerns MCF7. The experiment in a line: Potency index, ratio of lapatinib IC50 to test compound IC50 for antiproliferative activity against human MCF7 cells. Type of assay: functional.

Sequence of Receptor tyrosine-protein kinase erbB-2 (P04626 whole entry): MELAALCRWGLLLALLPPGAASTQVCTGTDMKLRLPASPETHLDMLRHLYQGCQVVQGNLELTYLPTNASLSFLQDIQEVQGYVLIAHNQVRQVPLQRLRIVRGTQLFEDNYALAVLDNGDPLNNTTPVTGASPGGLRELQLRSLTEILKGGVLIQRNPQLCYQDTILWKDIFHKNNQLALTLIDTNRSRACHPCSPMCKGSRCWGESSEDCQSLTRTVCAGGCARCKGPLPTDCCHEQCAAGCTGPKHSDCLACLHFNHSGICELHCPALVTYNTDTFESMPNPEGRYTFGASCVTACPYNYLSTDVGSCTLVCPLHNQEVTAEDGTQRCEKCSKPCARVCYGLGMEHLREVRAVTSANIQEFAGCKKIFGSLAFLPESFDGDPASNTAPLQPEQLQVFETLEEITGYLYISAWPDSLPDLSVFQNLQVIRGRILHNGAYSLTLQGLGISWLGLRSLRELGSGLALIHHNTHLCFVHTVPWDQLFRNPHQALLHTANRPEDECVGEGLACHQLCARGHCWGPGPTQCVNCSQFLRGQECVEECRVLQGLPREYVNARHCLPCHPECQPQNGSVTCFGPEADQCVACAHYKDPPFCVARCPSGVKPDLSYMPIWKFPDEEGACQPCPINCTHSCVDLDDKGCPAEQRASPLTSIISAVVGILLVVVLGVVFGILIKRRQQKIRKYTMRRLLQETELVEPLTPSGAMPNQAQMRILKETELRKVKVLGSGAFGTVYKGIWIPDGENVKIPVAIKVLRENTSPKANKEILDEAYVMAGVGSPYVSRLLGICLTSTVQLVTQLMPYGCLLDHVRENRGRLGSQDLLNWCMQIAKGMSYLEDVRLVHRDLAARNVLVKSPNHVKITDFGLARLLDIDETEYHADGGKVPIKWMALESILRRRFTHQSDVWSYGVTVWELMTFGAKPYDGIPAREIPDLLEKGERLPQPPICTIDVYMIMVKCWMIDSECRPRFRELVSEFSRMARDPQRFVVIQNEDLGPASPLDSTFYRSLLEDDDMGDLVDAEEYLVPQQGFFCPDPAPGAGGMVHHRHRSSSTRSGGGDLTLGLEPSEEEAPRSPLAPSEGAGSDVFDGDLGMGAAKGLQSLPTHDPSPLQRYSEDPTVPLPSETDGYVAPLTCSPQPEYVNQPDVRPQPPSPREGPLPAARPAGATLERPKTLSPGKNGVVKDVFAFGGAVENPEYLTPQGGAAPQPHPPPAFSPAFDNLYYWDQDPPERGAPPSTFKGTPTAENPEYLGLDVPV
Sequence of Receptor tyrosine-protein kinase erbB-4 (Q15303 whole entry): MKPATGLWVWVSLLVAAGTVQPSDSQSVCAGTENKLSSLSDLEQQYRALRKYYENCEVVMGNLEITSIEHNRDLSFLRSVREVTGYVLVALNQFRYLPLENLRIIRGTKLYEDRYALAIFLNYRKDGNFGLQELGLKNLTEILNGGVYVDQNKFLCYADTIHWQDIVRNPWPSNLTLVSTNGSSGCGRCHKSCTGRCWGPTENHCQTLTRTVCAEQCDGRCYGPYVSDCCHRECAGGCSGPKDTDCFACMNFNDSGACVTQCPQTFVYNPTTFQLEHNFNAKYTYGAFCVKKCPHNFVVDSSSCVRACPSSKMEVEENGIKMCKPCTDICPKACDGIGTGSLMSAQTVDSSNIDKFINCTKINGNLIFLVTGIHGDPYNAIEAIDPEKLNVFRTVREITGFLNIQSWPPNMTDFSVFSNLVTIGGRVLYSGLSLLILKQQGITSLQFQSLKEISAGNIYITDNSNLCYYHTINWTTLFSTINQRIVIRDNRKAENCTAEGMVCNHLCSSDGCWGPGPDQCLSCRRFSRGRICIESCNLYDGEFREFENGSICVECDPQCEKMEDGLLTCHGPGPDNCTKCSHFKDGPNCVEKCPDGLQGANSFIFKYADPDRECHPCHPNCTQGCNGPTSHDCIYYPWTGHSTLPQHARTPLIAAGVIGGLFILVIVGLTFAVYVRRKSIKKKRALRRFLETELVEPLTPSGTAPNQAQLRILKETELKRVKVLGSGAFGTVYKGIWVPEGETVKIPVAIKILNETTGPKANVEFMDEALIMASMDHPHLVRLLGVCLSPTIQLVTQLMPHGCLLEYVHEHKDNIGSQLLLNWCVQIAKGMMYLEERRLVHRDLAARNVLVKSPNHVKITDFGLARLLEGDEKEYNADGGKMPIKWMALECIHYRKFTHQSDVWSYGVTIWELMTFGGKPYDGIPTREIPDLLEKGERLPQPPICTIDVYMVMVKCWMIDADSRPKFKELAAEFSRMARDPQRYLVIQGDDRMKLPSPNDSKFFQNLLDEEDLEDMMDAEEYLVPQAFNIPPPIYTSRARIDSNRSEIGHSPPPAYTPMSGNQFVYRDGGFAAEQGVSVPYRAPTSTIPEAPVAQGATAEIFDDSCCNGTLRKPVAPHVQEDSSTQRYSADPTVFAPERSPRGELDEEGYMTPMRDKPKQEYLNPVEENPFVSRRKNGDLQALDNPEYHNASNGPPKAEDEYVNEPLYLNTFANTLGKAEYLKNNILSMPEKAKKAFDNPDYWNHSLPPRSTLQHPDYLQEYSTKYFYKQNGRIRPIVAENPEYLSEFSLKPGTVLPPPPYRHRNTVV
Sequence of Platelet-derived growth factor receptor alpha (P16234 whole entry): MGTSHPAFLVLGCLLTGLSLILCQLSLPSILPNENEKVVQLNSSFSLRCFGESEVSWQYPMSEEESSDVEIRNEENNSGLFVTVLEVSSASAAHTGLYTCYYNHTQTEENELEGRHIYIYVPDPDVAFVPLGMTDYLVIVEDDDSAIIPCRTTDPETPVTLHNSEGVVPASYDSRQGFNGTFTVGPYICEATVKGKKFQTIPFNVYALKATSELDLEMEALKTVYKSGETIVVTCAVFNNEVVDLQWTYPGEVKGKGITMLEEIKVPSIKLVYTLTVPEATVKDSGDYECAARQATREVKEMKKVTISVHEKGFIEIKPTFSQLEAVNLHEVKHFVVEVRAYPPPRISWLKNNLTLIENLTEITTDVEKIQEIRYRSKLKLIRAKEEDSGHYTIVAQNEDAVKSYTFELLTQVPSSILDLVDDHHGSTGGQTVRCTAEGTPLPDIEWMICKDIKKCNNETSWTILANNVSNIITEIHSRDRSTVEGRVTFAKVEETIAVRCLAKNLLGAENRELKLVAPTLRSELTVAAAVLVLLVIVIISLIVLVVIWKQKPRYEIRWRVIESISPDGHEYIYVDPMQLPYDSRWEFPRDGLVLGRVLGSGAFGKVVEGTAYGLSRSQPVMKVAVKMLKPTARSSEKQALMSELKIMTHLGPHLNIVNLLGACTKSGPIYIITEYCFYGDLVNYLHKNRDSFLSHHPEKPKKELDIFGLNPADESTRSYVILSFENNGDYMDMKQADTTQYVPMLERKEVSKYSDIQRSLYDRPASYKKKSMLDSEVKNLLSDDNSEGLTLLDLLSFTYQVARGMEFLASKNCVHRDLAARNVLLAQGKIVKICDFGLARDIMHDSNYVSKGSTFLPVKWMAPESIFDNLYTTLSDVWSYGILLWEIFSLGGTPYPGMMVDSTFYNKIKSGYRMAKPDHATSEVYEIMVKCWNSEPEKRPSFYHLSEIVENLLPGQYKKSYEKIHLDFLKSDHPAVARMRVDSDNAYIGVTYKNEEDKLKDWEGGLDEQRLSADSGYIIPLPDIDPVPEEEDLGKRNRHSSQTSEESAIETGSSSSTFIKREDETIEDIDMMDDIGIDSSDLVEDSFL
Sequence of Epidermal growth factor receptor (P00533 whole entry): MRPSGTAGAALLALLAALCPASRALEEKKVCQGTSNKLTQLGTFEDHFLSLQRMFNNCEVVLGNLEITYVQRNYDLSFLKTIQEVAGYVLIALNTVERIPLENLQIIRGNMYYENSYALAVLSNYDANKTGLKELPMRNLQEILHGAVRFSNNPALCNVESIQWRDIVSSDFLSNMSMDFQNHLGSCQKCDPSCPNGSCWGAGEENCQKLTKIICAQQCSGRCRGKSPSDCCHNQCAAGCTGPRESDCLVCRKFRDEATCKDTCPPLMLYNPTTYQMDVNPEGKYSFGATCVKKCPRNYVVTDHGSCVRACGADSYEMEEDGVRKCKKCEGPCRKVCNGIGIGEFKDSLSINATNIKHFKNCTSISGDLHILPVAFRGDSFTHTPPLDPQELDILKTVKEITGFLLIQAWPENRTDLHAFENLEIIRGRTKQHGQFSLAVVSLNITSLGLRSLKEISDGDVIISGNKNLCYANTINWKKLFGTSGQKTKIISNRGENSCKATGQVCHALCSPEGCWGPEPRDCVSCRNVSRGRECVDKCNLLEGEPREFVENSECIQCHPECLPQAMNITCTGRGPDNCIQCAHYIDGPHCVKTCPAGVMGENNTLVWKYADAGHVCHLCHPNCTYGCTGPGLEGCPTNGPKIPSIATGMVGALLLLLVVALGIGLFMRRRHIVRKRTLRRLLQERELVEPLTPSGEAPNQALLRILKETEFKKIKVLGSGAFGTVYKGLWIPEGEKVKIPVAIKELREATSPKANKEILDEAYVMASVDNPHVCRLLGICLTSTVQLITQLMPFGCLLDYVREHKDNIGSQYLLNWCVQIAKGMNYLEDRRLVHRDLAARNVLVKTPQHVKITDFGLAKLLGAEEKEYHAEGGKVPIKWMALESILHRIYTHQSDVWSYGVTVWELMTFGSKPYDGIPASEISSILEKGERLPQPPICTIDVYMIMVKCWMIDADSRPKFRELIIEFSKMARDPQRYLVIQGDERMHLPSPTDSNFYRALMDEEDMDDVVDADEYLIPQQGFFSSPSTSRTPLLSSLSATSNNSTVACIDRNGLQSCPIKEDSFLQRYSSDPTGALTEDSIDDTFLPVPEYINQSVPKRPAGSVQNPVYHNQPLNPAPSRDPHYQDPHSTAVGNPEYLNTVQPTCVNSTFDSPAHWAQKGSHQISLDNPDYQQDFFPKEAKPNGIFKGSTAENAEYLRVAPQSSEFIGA

On to `O=C(CN1CCOCC1)Nc1ccc2ncnc(Nc3ccc(Oc4cccc(C(F)(F)F)c4)c(Cl)c3)c2c1`, for which the activity at 10 µM in [1] is 82%; in [3] it was -91%; in [4] it was -94%; in [5], -71%. Also, the pIC50 with BT-474 is 6.53; with MCF7 [2], 4.95; in the assay on MDA-MB-231 it was 5.05; with AU565, 6.44.

With `O=C(CN1CCOCC1)Nc1ccc2ncnc(Nc3ccc(Oc4cccc(F)c4)c(Cl)c3)c2c1`, the activity at 10 µM in assay [1] is 18%; in assay [3] it was -92%; in assay [4], -97%; in [5], -67%. For the same compound, the pIC50 in the assay with BT-474 is 6.43; in the assay with MCF7 [2] it was 4.74; with MDA-MB-231, 4.52; in the assay with AU565, 6.26.

As for `Cc1cccc(Oc2ccc(Nc3ncnc4ccc(NC(=O)CN(C)C)cc34)cc2Cl)c1`, in the assay on MDA-MB-468 [6], the GI50 turned out to be 200 nM. Further, the pIC50 with BT-474 is 6.87; with MCF7 [2], 5.57; in the assay with MDA-MB-231, 5.35; in the assay with AU565 it was 6.81.

As to `Fc1cccc(COc2ccc(Nc3ncnc4ccc(OCCCN5CCOCC5)cc34)cc2Cl)c1`, the pIC50 in the assay on BT-474 is 7.09; with MCF7 [2], 5.21; in the assay with MDA-MB-231, 5.14; with AU565, 6.83.

In the case of `Fc1cccc(Oc2ccc(Nc3ncnc4ccc(OCCCN5CCOCC5)cc34)cc2Cl)c1`, the pIC50 was 6.55 in the assay on BT-474, 5.08 in the assay with MCF7 [2], 4.99 in the assay with MDA-MB-231 and 6.51 in the assay on AU565.

With `CN(C)Cc1ccc(C(=O)Nc2ccc3ncnc(Nc4ccc(Oc5cccc(F)c5)c(Cl)c4)c3c2)cc1`, the Activity in assay [7] is on record as 11.85%; in assay [8], 11.7%; in assay [9] it was 1.3%; in the assay on MDA-MB-468 [10] it was 11.7%; in assay [12] it was “<=78.7%”; in the assay with MCF7 [13], 11.7%. Besides, the pIC50 in the assay with BT-474 was 6.47; in the assay with MCF7 [2], 5.58; in the assay on MDA-MB-231, 5.30; in the assay on AU565 it was 6.65. Moreover, the inhibition of growth at 10 µM is 18.8% in the assay with MDA-MB-468 [11] and at most 78.7% in [14].

On to `CS(=O)(=O)CCNCc1ccc(-c2ccc3ncnc(Nc4ccc(OCc5cccc(F)c5)c(Cl)c4)c3c2)o1` [LAPATINIB], for which the activity at 10 µM in assay [1] is 56%; in [3], -52%; in assay [4], -99%. Besides, the pIC50 was 7.19 in the assay on BT-474, 5.20 in the assay on MCF7 [2], 4.98 in the assay on MDA-MB-231 and 7.19 in the assay with AU565.

With `O=C(Nc1ccc2ncnc(Nc3ccc(Oc4cccc(F)c4)c(Cl)c3)c2c1)c1ccc(CN2CCOCC2)cc1`, the pIC50 in the assay with BT-474 was 6.27; in the assay with MCF7 [2] it was 5.21; in the assay with MDA-MB-231, 4.94; in the assay on AU565, 6.03.

As for `CCN(CC)CCCOc1ccc2ncnc(Nc3ccc(Oc4cccc(C(F)(F)F)c4)c(Cl)c3)c2c1`, the Activity is given as 11.85% in [7]; 11.7% in assay [8]; 1.3% in [9]; 11.7% with MDA-MB-468 [10]; “<=78.7%” in assay [12]; 11.7% with MCF7 [13]. For the same compound, the GI50 in the assay with MDA-MB-468 [6] stood at 900 nM. The pIC50 in the assay on BT-474 was 6.67; in the assay with MCF7 [2], 5.80; in the assay with MDA-MB-231, 5.86; with AU565, 6.54. Also, the “Ratio IC50” value in the assay with MCF7 [15] is listed as “<=20”. Moreover, the inhibition of growth at 10 µM in the assay on MDA-MB-468 [11] was 18.8%; in [14], at most 78.7%.

Regarding `CN1CCN(CC(=O)Nc2ccc3ncnc(Nc4ccc(Oc5cccc(C(F)(F)F)c5)c(Cl)c4)c3c2)CC1`, the Activity in assay [7] was 11.85%; in assay [8], 11.7%; in assay [9], 1.3%; in the assay with MDA-MB-468 [10] it was 11.7%; in assay [12], “<=78.7%”; with MCF7 [13] it was 11.7%. In addition, the pIC50 is 6.43 in the assay with BT-474, 5.68 in the assay on MCF7 [2], 5.59 in the assay with MDA-MB-231 and 6.36 in the assay on AU565. Further, the figures for the inhibition of growth at 10 µM (in the assay with MDA-MB-468 [11]; in assay [14]) were 18.8% and at most 78.7%, respectively.

As to `Cc1cccc(Oc2ccc(Nc3ncnc4ccc(NC(=O)CN5CCOCC5)cc34)cc2Cl)c1`, the pIC50 was 7.04 in the assay with BT-474, 5.02 in the assay with MCF7 [2], 4.86 in the assay on MDA-MB-231 and 6.82 with AU565.

Take `CN1CCN(Cc2ccc(C(=O)Nc3ccc4ncnc(Nc5ccc(Oc6cccc(F)c6)c(Cl)c5)c4c3)cc2)CC1`: the negative logarithm of the IC50 (pIC50) is 6.30 with BT-474, 5.79 in the assay with MCF7 [2], 5.72 with MDA-MB-231 and 6.12 in the assay on AU565. For the same compound, in the assay with MCF7 [15], the “Ratio IC50” value is on record as “<=20”.

Regarding `CN(C)CC(=O)Nc1ccc2ncnc(Nc3ccc(Oc4cccc(C(F)(F)F)c4)c(Cl)c3)c2c1`, the pIC50 in the assay with BT-474 was 6.32; with MCF7 [2], 5.29; in the assay on MDA-MB-231, 5.58; with AU565, 6.39.

`OCCNCCCOc1ccc2ncnc(Nc3ccc(Oc4cccc(C(F)(F)F)c4)c(Cl)c3)c2c1`: the Activity is 11.85% in assay [7]; 18% in assay [8]; 1.3% in assay [9]; 18% with MDA-MB-468 [10]; “<=78.7%” in assay [12]; 18% in the assay on MCF7 [13]. Moreover, the GI50 with MDA-MB-468 [6] was determined as 600 nM. Also, the pIC50 in the assay with BT-474 is 6.58; in the assay on MCF7 [2] it was 5.82; with MDA-MB-231 it was 5.71; in the assay on AU565, 6.34. Further, the “Ratio IC50” value with MCF7 [15] is on record as “<=20”. In addition, the inhibition of growth at 10 µM in the assay with MDA-MB-468 [11] was 18.8%; in [14], at most 78.7%.

Turning to `CNC(=O)c1cc(Oc2ccc(NC(=O)Nc3ccc(Cl)c(C(F)(F)F)c3)cc2)ccn1` [SORAFENIB], the activity at 10 µM in assay [1] was -55%; in assay [4], -60%.

`CCN(CC)CC(=O)Nc1ccc2ncnc(Nc3ccc(Oc4cccc(F)c4)c(Cl)c3)c2c1`: the pIC50 with BT-474 was 6.27; in the assay on MCF7 [2], 5.25; in the assay with MDA-MB-231, 5.41; with AU565, 6.16.

For `CN1CCN(CCCOc2ccc3ncnc(Nc4ccc(Oc5cccc(F)c5)c(Cl)c4)c3c2)CC1`, the Activity in [7] was 11.85%; in assay [9], 1.3%; in assay [12], “<=78.7%”. The pIC50 in the assay on BT-474 was 6.66; in the assay with MCF7 [2] it was 6.04; in the assay on MDA-MB-231 it was 5.77; in the assay with AU565, 6.38. Also, in the assay with MCF7 [15], the “Ratio IC50” value is “<=20”. Moreover, the values for the inhibition of growth at 10 µM (in the assay on MDA-MB-468 [11]; in [14]) were 18.8% and at most 78.7%, respectively.

`CCN(CC)CC(=O)Nc1ccc2ncnc(Nc3ccc(Oc4cccc(C)c4)c(Cl)c3)c2c1`: the pIC50 in the assay with BT-474 was 6.58; with MCF7 [2], 5.57; in the assay on MDA-MB-231 it was 5.55; in the assay on AU565, 6.66.

Regarding `FC(F)(F)c1cccc(Oc2ccc(Nc3ncnc4ccc(OCCCN5CCOCC5)cc34)cc2Cl)c1`, the GI50 in the assay on MDA-MB-468 [6] was found to be 500 nM. The pIC50 is 6.61 in the assay on BT-474, 5.26 in the assay on MCF7 [2], 5.17 in the assay on MDA-MB-231 and 6.46 in the assay with AU565.

For `CN1CCN(CC(=O)Nc2ccc3ncnc(Nc4ccc(Oc5cccc(F)c5)c(Cl)c4)c3c2)CC1`, the negative logarithm of the IC50 (pIC50) with BT-474 is 6.66; with MCF7 [2] it was 5.22; with MDA-MB-231, 5.26; in the assay with AU565 it was 6.31.

What is called pIC50 is −log10 of the IC50, conventionally taken in molar units. In general, GI50 refers to the concentration at which growth is held to half of that of the control.
